For data set [1] the following is noted: reported in literature; cited from earlier work.
Data set [2] relates to tobacco cut worm (Spodoptera litura). Description: Insecticidal activity of fenvalerates on tobacco cut worm, leaf dip, 24 h (Test Example 1). Type of data set: in vivo. To be noted: for Relative Efficacy: Activity of Fenvalerate (common product) was taken as 100; for LC50 (concentration required for 50% death) / LC50: fourth instar larvae, 24 hours, 20% emulsifiable concentrate diluted; for LC50 (concentration required for 50% death): 1440 min; for LC50: Spodoptera litura, foliar, 24 h, read-out: LC50 (concentration required for 50% death). An excerpt:
Insecticidal activity of fenvalerates on tobacco cut worm (Spodoptera litura)
Fenvalerate Y obtained in Example 4, fenvalerate Y-rich fenvalerate obtained in Examples 5 and 6 and common fenvalerate were formulated into a 20% emulsifiable concentrate as usual (Composition: above pesticide 20%; xylene 70%; and Sorpol 3005X (a registered trademark of Toho Kagaku Co.) 10%). These emulsifiable concentrates were each diluted with water to a pre-determined concentration, and mixed with a spreader (Shin-Rino, a registered trademark of Nippon Noyaku Co.) of 3,000 times by weight based on the diluted liquor.
(§1) The dried leaves were placed in a plastic cup (diameter 10 cm, height 4 cm) at a rate of 2 leaves/cup, and the fourth instar larvae of tobacco cut worms were liberated therein. The dead and alive were examined after 24 hours and the values of LC50 (concentration required for 50% death) were obtained.
(§2) Experiments of three replications were carried out using 10 larvae per group.

The subject of data set [3] is housefly (Musca domestica). Description: Insecticidal activity of fenvalerates on housefly, topical application, 24 h (Test Example 2). The data set is classed as in vivo. To be noted: for Relative Efficacy: Activity of Fenvalerate (common product) was taken as 100; for LD50: CSMA-strain female adults, 0.5 μl to ventral thorax, 24 hours. The procedure:
Insecticidal activity of fenvalerates on housefly (Musca domestica)
Each pesticide used in Examples 4 and 5 was diluted with acetone to a pre-determined concentration, and 0.5 μl of the solution was applied to the ventral thorax of CSMA-strain housefly female adults by means of a microsyringe. The adults were then liberated in a plastic cup (diameter 11 cm) wherein a bait (3% sugar water) was placed. The dead and alive were examined after 24 hours, and the values of LD50 were obtained.

The nature of data set [4]: Insecticidal and acaricidal activity, general statements. The data set is classed as in vivo. The settings on record: diastereomers separated by recrystallization from hexane.
Data set [5] can be described thus: Solubility, general statement. The data set is classed as physicochemical. To be noted: compared with fenvalerate Aα.
Data set [6] concerns Houseflies (Musca domestica Linne). Description: Spray test of difluoromethoxy esters on housefly (Test Example 6 A). Type of data set: in vivo. The procedure:
(§3) Insecticidal activity of α-cyano-3-phenoxybenzyl 2-(4-difluoromethoxyphenyl)isovalerates on housefly, pea aphid and corn earworm
A. Housefly: Houseflies (Musca domestica Linne) were tested by placing 50 4- to 5-day old houseflies into spray cages and spraying with 0.6 ml of a solution of test compound. After spraying, the flies were anesthetized with CO2 and transferred to a recovery cage containing a milk pad for food. The cages were held for 18-20 hours after which mortality counts were made. Both dead and moribund were counted. The tests were conducted employing several different dosage rates of each test compound.
(§4) In each instance, the toxicity of the compound of the invention was compared to that of a standard pesticide (Parathion), its relative toxicity then being expressed in terms of the relationship between the amount of compound of the invention and the amount of the standard pesticide required to produce the same percentage (50) of mortality in the test insects or acarine. By assigning the standard pesticide an arbitrary rating of 100, the toxicities of the compounds of the invention were expressed in terms of the toxicity indexes, which compares the toxicity of the compounds of the invention with that of the standard pesticide.

The test system of data set [7] is Pea aphids (Acyrthosiphon pisum Harris). In words: Spray test of difluoromethoxy esters on pea aphid (Test Example 6 B). Type of data set: in vivo. On the procedure: as §3
B. Pea Aphid: Pea aphids (Acyrthosiphon pisum Harris) were tested by placing about 100 aphids on broad bean plants. The plants were sprayed with dilutions of acetone solution of test compound into water containing an emulsifier and held in containers under laboratory conditions for 18 to 20 hours at which time the living aphids in the containers were counted. The tests were conducted employing several different dosage rates of each test compound.
as §4

For data set [8], the system named is Corn earworm larvae (Heliothis zea Boddie). In words: Spray test of difluoromethoxy esters on corn earworm larvae (Test Example 6 C). Type of data set: in vivo. The procedure: as §3
C. Corn Earworm: Corn earworm larvae (Heliothis zea Boddie) were tested by spraying broad bean plants with dilutions of acetone solution of test compound into water containing an emulsifier. Immediately after spraying, 5 larvae were transferred to each plant and held for 44-46 hours, at which time the dead and moribund larvae were counted. The tests were conducted employing several different dosage rates for each test compound.
as §4

Data set [9] deals with tobacco cut worm (Spodoptera litura). In words: Insecticidal activity of difluoromethoxy esters on tobacco cut worm, leaf dip, 24 h (Test Example 7). The settings on record: foliar, read-out: LC50 (concentration required for 50% death). The data set is classed as in vivo.
Description: Insecticidal activity of α-cyano-3-phenoxybenzyl 2-(4-difluoromethoxyphenyl)isovalerates on tobacco cut worm (Spodoptera litura)
Emulsifiable concentrates of difluoromethoxy ester Y and Y-rich difluoromethoxy ester formulated according to Preparation Example 12 and a 20% emulsifiable concentrate of common difluoromethoxy ester formulated in the same manner were each diluted with water to a predetermined concentration, and mixed with a spreader (Shin-Rino, a registered trademark of Nippon Noyaku Co.) of 3,000 times by weight based on the diluted liquor.
as §1, §2

The test system of data set [10] is housefly (Musca domestica). In words: Insecticidal activity of methoxy and ethoxy esters on housefly, topical application, 24 h (Test Example 8). To be noted: CSMA-strain female adults, 0.5 μl to ventral thorax. Type of data set: in vivo. The procedure: Insecticidal activity of S phenylisovalerates (methoxy and ethoxy esters) on housefly (Musca domestica)
Each of S phenylisovalerate Y's and Y-rich S phenylisovalerates obtained in Examples 21 to 24 and common racemates was diluted with acetone to a pre-determined concentration, and 0.5 μl of the solution was applied to the ventral thorax of CSMA-strain housefly female adults by means of a microsyringe. The adults were then liberated in a plastic cup (diameter 11 cm) wherein a bait (3% sugar water) was placed. The dead and alive were examined after 24 hours, and the values of LD50 were obtained.

Where [11] appears, read: fourth instar larvae, 24 hours, emulsifiable concentrate diluted.
[12] abbreviates: Parathion = 100, 50% mortality, 18-20 hours, * High Knockdown.
The mark [13] stands for this setting: Parathion = 100, 50% mortality, 18 to 20 hours, * High Knockdown.
Setting [14] is: Parathion = 100, 50% mortality, 44-46 hours, * High Knockdown.

≈ marks a conversion by molar mass, not a printed value.

Turning to `CC(C)[C@H](C(=O)O[C@H](C#N)c1cccc(Oc2ccccc2)c1)c1ccc(Cl)cc1` [fenvalerate Aα, (S)-α-cyano-3-phenoxybenzyl (S)-2-(4-substituted-phenyl)isovalerate], in data set [1], the “insecticidal and acaricidal activity” value was “the most active stereoisomer of the four”.

For the molecule `CC(C)C(C(=O)OC(C#N)c1cccc(Oc2ccccc2)c1)c1ccc(Cl)cc1` (stereo not shown) [Example 6], in [2], the “Relative Efficacy” value is 125 and the “LC50 (concentration required for 50% death)” value came out at 5.9 ppm.

For the molecule `CC(C)C(C(=O)OC(C#N)c1cccc(Oc2ccccc2)c1)c1ccc(Cl)cc1` (stereo not shown) [Example 5], in [3], the “Relative Efficacy” value came to 172 and the LD50 is on record as 0.018 μg/housefly. In addition, in data set [2], the “Relative Efficacy” value was 172 and the LC50 came to 4.3 µg/mL (≈ 10.2 µM).

In the case of `C#CC(OC(=O)C(c1ccc(Cl)cc1)C(C)C)c1cccc(Oc2ccccc2)c1` (stereo not drawn) [diastereomer having a melting point of 87° to 88° C., α-ethynyl-3-phenoxybenzyl 2-(4-chlorophenyl)isovalerate], in data set [4], the insecticidal activity entry is “very weak insecticidal activity”.

With `CC(C)[C@H](C(=O)O[C@H](C#N)c1cccc(Oc2ccccc2)c1)c1ccc(Cl)cc1` (relative stereo) [fenvalerate Y], the “insecticidal and acaricidal activity” value in [1] was “highly active pesticide”. In data set [5], the solubilities result was “greater than those of fenvalerate Aα”.

As to `CC(C)[C@H](C(=O)O[C@H](C#N)c1cccc(Oc2ccccc2)c1)c1ccc(OC(F)F)cc1` (relative stereo) [Same, Y Isomer Pair, α-cyano-3-phenoxybenzyl 2-(4-difluoromethoxyphenyl)isovalerate], the results for the “Toxicity Index” value in data set [6] (in vivo), in data set [7] (in vivo) and in data set [8] (in vivo) were 1100, 1273 and 1544, respectively.

Consider `CC(C)[C@H](C(=O)O[C@H](C#N)c1cccc(Oc2ccccc2)c1)c1ccc(Cl)cc1` (relative stereo) [Example 4], for which, in data set [3], the “Relative Efficacy” value is 207 and the LD50 is recorded as 0.015 μg/housefly. For the same molecule, in [2], the “Relative Efficacy” value worked out at 195 and the LC50 was 3.8 µg/mL (≈ 9.05 µM).

Consider `CC(C)C(C(=O)OC(C#N)c1cccc(Oc2ccccc2)c1)c1ccc(OC(F)F)cc1` (stereo not drawn) [Y-Rich Difluoromethoxy Ester, α-cyano-3-phenoxybenzyl 2-(4-difluoromethoxyphenyl)isovalerate], for which the LC50 in [9] (setting [11]) came to 14 µg/mL (≈ 31 µM).

With `CC(C)[C@H](C(=O)O[C@@H](C#N)c1cccc(Oc2ccccc2)c1)c1ccc(OC(F)F)cc1` (relative stereo) [Same, X Isomer Pair, α-cyano-3-phenoxybenzyl 2-(4-difluoromethoxyphenyl)isovalerate], the figures for the “Toxicity Index” value in data set [6] (setting [12]), in data set [7] (setting [13]) and in data set [8] (setting [14]) were 47, 45 and 106, respectively.

Take `C#CC(OC(=O)C(c1ccc(Cl)cc1)C(C)C)c1cccc(Oc2ccccc2)c1` (stereo not drawn) [diastereomer (m.p. 51°-52° C.), α-ethynyl-3-phenoxybenzyl 2-(4-chlorophenyl)isovalerate]: the insecticidal activity result in data set [4] is “higher insecticidal activity”.

For `CCOc1ccc(C(C(=O)OC(C#N)c2cccc(Oc3ccccc3)c2)C(C)C)cc1` (racemic) [Common Ethoxy Ester (racemate), α-cyano-3-phenoxybenzyl 2-(4-ethoxyphenyl)isovalerate], in [10], the LD50 is listed as 0.54 μg/housefly.

In data set [10], `COc1ccc(C(C(=O)OC(C#N)c2cccc(Oc3ccccc3)c2)C(C)C)cc1` (racemic) [Common Methoxy Ester (racemate), α-cyano-3-phenoxybenzyl 2-(4-methoxyphenyl)isovalerate] had an LD50 of 0.35 μg/housefly.

Take `CC(C)C(C(=O)OC(C#N)c1cccc(Oc2ccccc2)c1)c1ccc(Cl)cc1` (stereo not drawn) [Fenvalerate (common product), α-Cyano-3-phenoxybenzyl 2-(4-chlorophenyl)isovalerate, reference compound]: in [3], the “Relative Efficacy” value was determined as 100 and the LD50 is given as 0.031 μg/housefly. Besides, in data set [2], the “Relative Efficacy” value is 100 and the “LC50 (concentration required for 50% death)” value is 7.4 ppm.

With `CC(C)C(C(=O)OC(C#N)c1cccc(Oc2ccccc2)c1)c1ccc(OC(F)F)cc1` (racemic) [Common Difluoromethoxy Ester, α-cyano-3-phenoxybenzyl 2-(4-difluoromethoxyphenyl)isovalerate], the results for the “Toxicity Index” value in data set [6] (setting [12]), in data set [7] (setting [13]) and in data set [8] (setting [14]) were 219, 582 and 773, respectively. Moreover, the LC50 in [9] (setting [11]) is 23 µg/mL (≈ 50.9 µM).

With `COc1ccc(C(C(=O)OC(C#N)c2cccc(Oc3ccccc3)c2)C(C)C)cc1` (stereo not drawn) [Y-Rich Methoxy Ester, α-cyano-3-phenoxybenzyl 2-(4-methoxyphenyl)isovalerate], the LD50 in [10] is 0.20 μg/housefly.

With `CCOc1ccc([C@@H](C(=O)O[C@H](C#N)c2cccc(Oc3ccccc3)c2)C(C)C)cc1` (relative stereo) [Ethoxy Ester Y, α-cyano-3-phenoxybenzyl 2-(4-ethoxyphenyl)isovalerate], the LD50 in data set [10] turned out to be 0.28 μg/housefly.

Take `CC(C)[C@H](C(=O)O[C@H](C#N)c1cccc(Oc2ccccc2)c1)c1ccc(OC(F)F)cc1` (relative stereo) [Difluoromethoxy Ester Y, α-cyano-3-phenoxybenzyl 2-(4-difluoromethoxyphenyl)isovalerate]: the LC50 in data set [9] (24 h) stood at 12 µg/mL (≈ 26.6 µM).

In data set [10], `CCOc1ccc(C(C(=O)OC(C#N)c2cccc(Oc3ccccc3)c2)C(C)C)cc1` (stereo not drawn) [Y-Rich Ethoxy Ester, α-cyano-3-phenoxybenzyl 2-(4-ethoxyphenyl)isovalerate] yielded an LD50 of 0.46 μg/housefly.

As for `COc1ccc([C@@H](C(=O)O[C@H](C#N)c2cccc(Oc3ccccc3)c2)C(C)C)cc1` (relative stereo) [Methoxy Ester Y, α-cyano-3-phenoxybenzyl 2-(4-methoxyphenyl)isovalerate], the LD50 in [10] is 0.17 μg/housefly.
